# Test results reported in US20140271734A1, “BILE ACID RECYCLING INHIBITORS FOR TREATMENT OF BARRETT'S ESOPHAGUS AND GASTROESOPHAGEAL REFLUX DISEASE” (LUMENA PHARMACEUTICALS, INC., priority 2013, published 2014).
# Tests used:
# [1] = system: fecal total bile acid (FBA); assay: Fecal bile acids in monkeys, LUM001 for 14 days; assay type: in vivo, rhesus monkeys; conditions: n=5
# Source text: Fifteen experimentally naive male rhesus monkeys were utilized in this study. These animals were 2.1 to 4.2 years of age and weighed between 2.8 to 4.3 kg on the day prior to treatment initiation. HARLAN TEKLAD PRIMATE DIET® (Certified) was provided daily in amounts appropriate for the size and age of the animals. The diet was supplemented with fruit or vegetables 2-3 times weekly. Small bits of fruit, cereal or other treats were given to the animals following dose administration and periodically as part of facility's environmental enrichment program. Beginning prior to treatment initiation, only non-fat treats were provided to the animals (e.g., standard primate treats including peanut butter, sunflower seeds, baby food, nuts, pudding, and worms were specifically not permitted). Tap water was available ad libitum via an automatic watering device. Each animal was administered a dose of the LUM001 contained within gelatin capsules or the control article (empty gelatin capsules) once daily for 14 consecutive days. Fecal samples for determination of bile acid content were collected over approximately 24-hour periods beginning three days prior to treatment initiation and continuing until scheduled termination of dosing on Day 15. Samples were stored at −70 C until analysis.
# Fecal samples were collected to determine the fecal total bile acid (FBA) concentration for each animal. Fecal collections were made during the final 72 hours of the study, for three consecutive 24-hour periods between 9:00 am and 10:00 am each day, prior to dosing and feeding. The separate daily collections from each dog were weighed, combined and homogenized with distilled water in a food processor to generate a homogeneous slurry. Homogenate (1.4 g) was extracted in a final concentration ratio of 2:0.6 of 50% (v/v) tertiary butanol/distilled water for 45 minutes in a 37° C. water bath and subjected to centrifugation for 13 minutes at 2000×g. The concentration of bile acids (mmolesgram homogenate) was determined using a 96-well enzymatic assay system. Aliquots of the fecal extracts (20 μl) were added to two sets of triplicate wells in a 96 well assay plate. A standardized sodium taurocholate solution and a standardized fecal extract solution (previously made from pooled samples and characterized for its bile acid concentration) were also analyzed for assay quality control. Aliquots of sodium taurocholate (20 μl), were serially diluted to generate a standard curve containing 30-540 nmoles/well. A 230 μl aliquot of reaction mixture containing 1M hydrazine hydrate, 0.1 M pyrophosphate and 0.46 mg/ml NAD was added to each well. […] Following 60 minutes of incubation at room temperature, the optical density at 340 nm was measured and the mean of each set of triplicate samples was calculated. […]
# [2] = Pharmacokinetics of LUM002 100 mg single oral dose in humans; assay type: in vivo, human
# Procedure: Healthy male subjects, from 18 to 45 years of age, were given a single oral solution dose (100 mg in 100 mL) of LUM002 under fasting conditions. Blood samples for the determination of LUM002 plasma concentration were collected predose and 0.5, 1, 2, 3, 4, 5, 6, 8, 10, 12, 16, 24, and 48 hours after treatment administration. Plasma was obtained by centrifugation and […] processed for protein precipitation, centrifuged again to remove the precipitate and the supernatant prepared for LC-MSMS analysis. LUM002 plasma concentrations were determined using a validated liquid chromatography tandem mass spectrometry (LC-MSMS) assay with a lower limit of quantification (LLOQ) of 0.1 ng/mL. LUM002 plasma concentrations were used to determine the following pharmacokinetic parameters using standard noncompartmental techniques: Cmax, Tmax, AUClast, and, if applicable due to the low-absorbable characteristics of LUM002, also AUC, AUC0-24 and t1/2.
# [3] = 100 mg single oral dose, Geometric Mean, N=6
# [4] = 100 mg single oral dose, Median, N=6
# [5] = 100 mg single oral dose, Subject 250001149
# [6] = 100 mg single oral dose, Subject 250001150
# [7] = 100 mg single oral dose, Subject 250001151
# [8] = 100 mg single oral dose, Subject 250001154
# [9] = 100 mg single oral dose, Subject 250001155
# [10] = 100 mg single oral dose, Subject 750001156
# [11] = 100 mg single oral dose, mean, N=6
smiles,measurement,setting,value
CCCCC1(CCCC)CS(=O)(=O)c2ccc(N(C)C)cc2[C@@H](c2ccc(OCc3ccc(C[N+]45CCN(CC4)CC5)cc3)cc2)[C@H]1O [LUM001],Fecal Total Bile Acids,"[1]; 5 mg/kg once daily 14 days, Day 15",23 µmol/day/kg
same,Fecal Total Bile Acids,"[1]; 5 mg/kg once daily, Prestudy",6 µmol/day/kg
same,Fecal Total Bile Acids,"[1]; 50 mg/kg once daily 14 days, Day 15",63 µmol/day/kg
same,Fecal Total Bile Acids,"[1]; 50 mg/kg once daily, Prestudy",6 µmol/day/kg
"CCCC[C@]1(CC)CS(=O)(=O)c2ccc(N(C)C)cc2[C@@H](c2cccc(NC(=O)N[C@@H]3O[C@H](COS(=O)(=O)[O-])[C@@H](O)[C@H](OCc4ccccc4)[C@H]3O)c2)[C@H]1O.CCO.O.[K+] [LUM002, potassium((2R,3R,4S,5R,6R)-4-benzyloxy-6-{3-[3-((3S,4R,5R)-3-butyl-7-dimethylamino-3-ethyl-4-hydroxy-1,1-dioxo-2,3,4,5-tetrahydro-1H-benzo[b]thiepin-5-yl)-phenyl]-ureido}-3,5-dihydroxy-tetrahydro-pyran-2-ylmethyl)sulphate ethanolate, hydrate]",AUClast,[2]; [3],0.187 ng·h/mL
same,Cmax,[2]; [3],0.197 ng/mL
same,Tmax,[2]; [3],3.22 h
same,tlast,[2]; [3],4.93 h
same,AUClast,[2]; [4],0.148 ng·h/mL
same,Cmax,[2]; [4],0.216 ng/mL
same,Tmax,[2]; [4],5.00 h
same,tlag,[2]; [4],1.00 h
same,tlast,[2]; [4],5.00 h
same,AUC0-24,[2]; [5],1.92 ng·h/mL
same,AUCExt,[2]; [5],39%
same,AUClast,[2]; [5],1.19 ng·h/mL
same,Cmax,[2]; [5],0.300 ng/mL
same,Tmax,[2]; [5],5.00 h
same,t1/2z,[2]; [5],3.39 h
same,tlag,[2]; [5],0.00 h
same,tlast,[2]; [5],8.00 h
same,AUClast,[2]; [6],0.0815 ng·h/mL
same,Cmax,[2]; [6],0.163 ng/mL
same,Tmax,[2]; [6],5.00 h
same,tlag,[2]; [6],4.00 h
same,tlast,[2]; [6],5.00 h
same,AUClast,[2]; [7],0.0645 ng·h/mL
same,Cmax,[2]; [7],0.129 ng/mL
same,Tmax,[2]; [7],3.00 h
same,tlag,[2]; [7],2.00 h
same,tlast,[2]; [7],3.00 h
same,AUClast,[2]; [8],0.215 ng·h/mL
same,Cmax,[2]; [8],0.269 ng/mL
same,Tmax,[2]; [8],6.00 h
same,tlag,[2]; [8],0.00 h
same,tlast,[2]; [8],6.00 h
same,AUClast,[2]; [9],0.522 ng·h/mL
same,Cmax,[2]; [9],0.286 ng/mL
same,Tmax,[2]; [9],0.50 h
same,tlag,[2]; [9],0.00 h
same,tlast,[2]; [9],4.00 h
same,AUClast,[2]; [10],0.0600 ng·h/mL
same,Cmax,[2]; [10],0.120 ng/mL
same,Tmax,[2]; [10],5.00 h
same,tlag,[2]; [10],4.00 h
same,tlast,[2]; [10],5.00 h
same,AUClast,[2]; [11],0.355 ng·h/mL
same,Cmax,[2]; [11],0.211 ng/mL
same,Tmax,[2]; [11],4.08 h
same,tlag,[2]; [11],1.67 h
same,tlast,[2]; [11],5.17 h
same,LUM002 dose systemically absorbed,"[2]; healthy male subjects, single oral solution 100 mg, fasting",Less than 1%
